The values that follow come from patent publication US9205122B2, “Herbal composition comprising ginger and goldenrod for the treatment of cold and flu” (priority 2009, dated 2015).

Values after ≈ are worked out from the molar mass of the structure shown. Bounds are passed on as bounds.

Data set [1] relates to influenza strain A/WS/33 (H1N1). Briefly: Mouse influenza infection model (preventive and curative arms). The data set is classed as in vivo, CD-1 mice. To be noted: curative arm, oral daily from day 0; Tamiflu 10, Nutracan 350 mg/kg. As for the experimental part: Ginger, goldenrod and a combination thereof were assayed in a recognized animal model related to the prevention and treatment of the influenza virus (Cottey R, 2001). In this study, the ginger was assayed as a dry plant (rhizome) […] a CO2 extract. However, the relative quantity of the ginger dry plant used was equivalent to the ginger CO2 extract used in Example 1 (equivalent to the dry starting material). The ginger/goldenrod combination that was used also comprised blueberry dry powder. This formulation is named the Nutracan™ formulation and is described in Table II below.
In this model, CD-1 mice (10 females per group) were inoculated intranasally with the influenza strain A/WS/33 (H1N1) at 1×10^3 PFU as determined in a preliminary study (data not shown). […]
1) Seven groups of CD1 mice were randomized based on their weight (n=10). […] Mice were sacrificed when their general state (including abnormal behaviour, determined by a veterinarian) had deteriorated or they had lost more than 20% of their weight.

Data set [2] deals with Human Influenza Virus A/CA/04/09 H1N1. Briefly: organism not typed. In kind it is cell-based. The settings on record: A/CA/04/09, MDCK, 72 h; mix as PL202:PL208.
The test system of data set [3] is human influenza virus A/WS/33, H1N1. The experiment in a line: Plaque inhibition assay, influenza A/WS/33 on MDCK cell monolayer. The data set is classed as cell-based. The settings on record: 0.05 mg/ml, read-out: inhibition of formation of lysis plaques.
Data set [4] relates to MDCK cells. The settings on record: no virus, 72 h, mix as PL202:PL208.

The IC50 is the midpoint of a concentration-inhibition curve. Higher therefore signals weaker potency. The inhibition is the relative decrease from the control value, in per cent.

Take `CCOC(=O)C1=C[C@@H](OC(CC)CC)[C@H](NC(C)=O)[C@@H](N)C1` [Tamiflu, Oseltamivir phosphate]: the “MDD (mean day of death)” value in data set [1] is 7.6. Also, in data set [2], half-maximal inhibition (IC50) required 0.1 µg/mL. Also, the inhibition at 50 µg/mL in data set [3] worked out at 52%. In addition, in data set [4], the TC50 is >10.3 µg/mL and the TC90 was >10.3 µg/mL.

In data set [2], `NC(=O)c1ncn([C@@H]2O[C@H](CO)[C@@H](O)[C@H]2O)n1` [Ribavirin] had a 50% inhibitory concentration (IC50) of 5.26 µg/mL (≈ 21.5 µM).
